In US7569570B2, “Thienopyrimidines, process for preparing the same and use thereof” (Takeda Pharmaceutical Company Limited, priority 2002, dated 2009):

With `CCNC(=O)Nc1ccc(-c2sc3c(c2CN(C)CCC(=O)NC)c(=O)n(-c2ccc(F)cc2)c(=O)n3Cc2c(F)cccc2F)cc1` [Example 30] as the compound, how does the melting point read?
The melting point was 237 to 239 °C.

For `CCNC(=O)Nc1ccc(-c2sc3c(c2CN(C)CCOC)c(=O)n(-c2ccc(OCCOC(C)=O)cc2)c(=O)n3Cc2c(F)cccc2F)cc1` [Example 107, 2-[4-(1-(2,6-difluorobenzyl)-6-(4-{[(ethylamino)carbonyl]amino}phenyl)-5-([(2-methoxyethyl(methyl)amino)methyl]-2,4-dioxo-1,2,3,4-tetrahydrothieno[2,3-d]pyrimidin-3(2H)-yl}phenoxy)ethyl acetate], which melting point is on record?
The melting point was 212 to 215 °C.

Which melting point does the source give for `CCNC(=O)Nc1ccc(-c2sc3c(c2CN(C)CCNS(C)(=O)=O)c(=O)n(-c2ccccc2)c(=O)n3Cc2c(F)cccc2F)cc1` [Example 22, N-{2-[{[1-(2,6-difluorobenzyl)-6-(4-{[(ethylamino)carbonyl]amino}phenyl)-2,4-dioxo-3-phenyl-1,2,3,4-tetrahydrothieno[2,3-d]pyrimidin-5-yl]methyl}(methyl)amino]ethyl}methanesulfonamide] here?
The melting point was 186 to 188 °C.

With `CCNC(=O)Nc1ccc(-c2sc3c(c2CN(C)CCOC)c(=O)n(-c2ccc(OCCOC)c(OCCOC)c2)c(=O)n3Cc2c(F)cccc2F)cc1` [Example 105] as the compound, how does the melting point read?
The melting point was 222 to 225 °C.

With `CCNC(=O)Nc1ccc(-c2sc3c(c2CN(C)CCN2CCCC2=O)c(=O)n(-c2ccc(F)cc2)c(=O)n3Cc2c(F)cccc2F)cc1` [Example 33] as the compound, how does the melting point read?
The melting point was 204 to 206 °C.

With `CCNC(=O)Nc1ccc(-c2sc3c(c2CN(C)CCOC)c(=O)n(-c2ccc(OCCOC)cc2)c(=O)n3Cc2c(F)cccc2F)cc1` [Example 104] as the compound, how does the melting point read?
Its melting point is 215 to 218 °C.

With `CCNC(=O)Nc1ccc(-c2sc3c(c2CN(C)C[C@H]2CCCN2S(C)(=O)=O)c(=O)n(-c2ccccc2)c(=O)n3Cc2c(F)cccc2F)cc1` [Example 85] as the compound, how does the melting point read?
Its melting point is 189 to 190 °C.

Which melting point does the source give for `CCNC(=O)Nc1ccc(-c2sc3c(c2CN(C)CCOC)c(=O)n(-c2ccc(OCCO)cc2)c(=O)n3Cc2c(F)cccc2F)cc1` [Example 108] here?
Its melting point is 236 to 238 °C.

For `CCNC(=O)Nc1ccc(-c2sc3c(c2CN(C)CC2CCN(C)C2=O)c(=O)n(-c2ccc(F)cc2)c(=O)n3Cc2c(F)cccc2F)cc1` (centres unmarked) [Example 36, N-(4-[1-(2,6-difluorobenzyl)-3-(4-fluorophenyl)-5-({methyl[(1-methyl-2-oxo-3-pyrrolidinyl)methyl]amino}methyl)-2,4-dioxo-1,2,3,4-tetrahydrothieno[2,3-d]pyrimidin-6-yl]phenyl}-N′-ethylurea], which melting point is on record?
Its melting point is 233 to 234 °C.

Which melting point does the source give for `CCNC(=O)Nc1ccc(-c2sc3c(c2CN(C)Cc2ccccn2)c(=O)n(-c2ccc(F)cc2)c(=O)n3Cc2c(F)cccc2F)cc1` [Example 114] here?
Its melting point is 243 to 244 °C.

Which melting point does the source give for `CCNC(=O)Nc1ccc(-c2sc3c(c2CN(C)CCN(C)S(C)(=O)=O)c(=O)n(-c2ccccc2)c(=O)n3Cc2c(F)cccc2F)cc1` [Example 23, N-{2-[{[1-(2,6-difluorobenzyl)-6-(4-{[(ethylamino)carbonyl]amino)phenyl)-2,4-dioxo-3-phenyl-1,2,3,4-tetrahydrothieno[2,3-d]pyrimidin-5-yl]methyl}(methyl)amino]ethyl}-N-methylmethanesulfonamide] here?
Its melting point is 216 to 218 °C.

For `CCNC(=O)Nc1ccc(-c2sc3c(c2CN(C)CCN2CCCC2=O)c(=O)n(-c2ccccc2)c(=O)n3Cc2c(F)cccc2F)cc1` [Example 20, N-{4-[1-(2,6-difluorobenzyl)-5-({methyl[2-(2-oxo-1-pyrrolidinyl)ethyl]amino}methyl)-2,4-dioxo-3-phenyl-1,2,3,4-tetrahydrothieno[2,3-d]pyrimidin-6-yl]phenyl}-N′-ethylurea], which melting point is on record?
The melting point was 140 to 142 °C.

With `CCNC(=O)Nc1ccc(-c2sc3c(c2CN(C)CCOC)c(=O)n(-c2ccc(OCCOC)c(OCCOC)c2)c(=O)n3Cc2c(F)cccc2F)cc1` [Example 101, N-[4-(3-[3,4-bis(2-methoxyethoxy)phenyl]-1-(2,6-difluorobenzyl)-5-{[(2-methoxyethyl)(methyl)amino]methyl}-2,4-dioxo-1,2,3,4-tetrahydrothieno[2,3-d]pyrimidin-6-yl)phenyl]-N′-ethylurea] as the compound, how does the melting point read?
Its melting point is 206 to 208 °C.

For `CCNC(=O)Nc1ccc(-c2sc3c(c2CN(C)CCC(=O)NC)c(=O)n(-c2ccc(OCCOC)cc2)c(=O)n3Cc2c(F)cccc2F)cc1` [Example 31], which melting point is on record?
Its melting point is 163 to 165 °C.

For `CCNC(=O)Nc1ccc(-c2sc3c(c2CN(C)CCOC)c(=O)n(-c2ccc(O)cc2)c(=O)n3Cc2c(F)cccc2F)cc1` [Example 103], which melting point is on record?
The melting point was 260 to 265 °C.

For `CCNC(=O)Nc1ccc(-c2sc3c(c2CN(C)CCC(=O)N(C)C)c(=O)n(-c2ccc(F)cc2)c(=O)n3Cc2c(F)cccc2F)cc1` [Example 32], which melting point is on record?
Its melting point is 210 to 212 °C.

With `CCNC(=O)Nc1ccc(-c2sc3c(c2CN(C)CCOCCOC)c(=O)n(-c2ccccc2)c(=O)n3Cc2c(F)cccc2F)cc1` [Example 109, N-[4-(1-(2,6-difluorobenzyl)-5-{[[2-(2-methoxyethoxy)ethyl](methyl)amino]methyl}-2,4-dioxo-3 phenyl-1,2,3,4-tetrahydrothieno[2,3-d]pyrimidin-6-yl)phenyl]-N′-ethylurea] as the compound, how does the melting point read?
The melting point was 228 to 231 °C.

Which melting point does the source give for `CCNC(=O)Nc1ccc(-c2sc3c(c2CN(C)CCC(=O)NCCOC)c(=O)n(-c2ccccc2)c(=O)n3Cc2c(F)cccc2F)cc1` [Example 95, 3-[{[1-(2,6-difluorobenzyl)-6-(4-{[(ethylamino)carbonyl]amino}phenyl)-2,4-dioxo-3-phenyl-1,2,3,4-tetrahydrothieno[2,3-d]pyrimidin-5-yl]methyl}(methyl)amino]-N-(2-methoxyethyl)propanamide] here?
Its melting point is 240 to 244 °C.

For `CCNC(=O)Nc1ccc(-c2sc3c(c2CN(C)CC(=O)OCC)c(=O)n(-c2ccccc2)c(=O)n3Cc2c(F)cccc2F)cc1` [Example 5, ethyl[{[1-(2,6-difluorobenzyl)-6-(4-{[(ethylamino)carbonyl]amino}phenyl)-2,4-dioxo-3-phenyl-1,2,3,4-tetrahydrothieno[2,3-d]pyrimidin-5-yl]methyl}(methyl)amino]acetate], which melting point is on record?
The melting point was 208 to 209 °C.

For `CCNC(=O)Nc1ccc(-c2sc3c(c2CN(C)CCNC(C)=O)c(=O)n(-c2ccccc2)c(=O)n3Cc2c(F)cccc2F)cc1` [Example 19, N-{2-[{[1-(2,6-difluorobenzyl)-6-(4-{[(ethylamino)carbonyl]amino}phenyl)-2,4-dioxo-3-phenyl-1,2,3,4-tetrahydrothieno[2,3-d]pyrimidin-5-yl]methyl}(methyl)amino]ethyl}acetamide], which melting point is on record?
Its melting point is 185 to 186 °C.

For `CCNC(=O)Nc1ccc(-c2sc3c(c2CN(C)CCNC)c(=O)n(-c2ccccc2)c(=O)n3Cc2c(F)cccc2F)cc1` [Example 26, N-{4-[1-(2,6-difluorobenzyl)-5-({methyl[2-(methylamino)ethyl]amino}methyl)-2,4-dioxo-3-phenyl-1,2,3,4-tetrahydrothieno[2,3-d]pyrimidin-6-yl)phenyl}-N′-ethylurea], which melting point is on record?
The melting point was 192 to 193 °C.

With `CCNC(=O)Nc1ccc(-c2sc3c(c2CN(C)CCCC(=O)N(C)C)c(=O)n(-c2ccccc2)c(=O)n3Cc2c(F)cccc2F)cc1` [Example 18, 4-[{[1-(2,6-difluorobenzyl)-6-(4-{[(ethylamino)carbonyl]amino}phenyl)-2,4-dioxo-3-phenyl-1,2,3,4-tetrahydrothieno[2,3-d]pyrimidin-5-yl]methyl}(methyl)amino]-N,N-dimethylbutane amide] as the compound, how does the melting point read?
Its melting point is 191 to 193 °C.

Which melting point does the source give for `CCNC(=O)Nc1ccc(-c2sc3c(c2CN(C)CCC(=O)N(C)C)c(=O)n(-c2ccccc2)c(=O)n3Cc2c(F)cccc2F)cc1` [Example 10, 3-[{[1-(2,6-difluorobenzyl)-6-(4-{[(ethylamino)carbonyl]amino}phenyl)-2,4-dioxo-3-phenyl-1,2,3,4-tetrahydrothieno[2,3-d]pyrimidin-5-yl]methyl}(methyl)amino]-N,N-dimethylpropanamide] here?
Its melting point is 236 to 237 °C.

Which melting point does the source give for `CCNC(=O)Nc1ccc(-c2sc3c(c2CN(C)Cc2ccccn2)c(=O)n(-c2ccccc2)c(=O)n3Cc2c(F)cccc2F)cc1` [Example 113] here?
Its melting point is 203 to 204 °C.

Which melting point does the source give for `CCNC(=O)Nc1ccc(-c2sc3c(c2CN(C)CCN2CCCC2=O)c(=O)n(-c2ccc(OCCOC)cc2)c(=O)n3Cc2c(F)cccc2F)cc1` [Example 34] here?
The melting point was 175 to 177 °C.

Which melting point does the source give for `CCNC(=O)Nc1ccc(-c2sc3c(c2CNC)c(=O)n(-c2ccc(OCCOC)cc2)c(=O)n3Cc2c(F)cccc2F)cc1` [Example 28, N-(4-{1-(2,6-difluorobenzyl)-3-[4-(2-methoxyethoxy)phenyl]-5-[(methylamino)methyl]-2,4-dioxo-1,2,3,4-tetrahydrothieno[2,3-d]pyrimidin-6-yl}phenyl)-N′-ethylurea] here?
Its melting point is 203 to 205 °C.

Which melting point does the source give for `CCNC(=O)Nc1ccc(-c2sc3c(c2CN(C)CCOCCOCC)c(=O)n(-c2ccccc2)c(=O)n3Cc2c(F)cccc2F)cc1` [Example 111, N-[4-(1-(2,6-difluorobenzyl)-5-[{[2-(2-ethoxy)ethoxy]ethyl(methyl)amino}methyl]-2,4-dioxo-3-phenyl-1,2,3,4-tetrahydrothieno[2,3-d]pyrimidin-6-yl)phenyl]-N′-ethylurea] here?
Its melting point is 230 to 233 °C.

Which melting point does the source give for `CCNC(=O)Nc1ccc(-c2sc3c(c2CN(C)CCC(=O)N2CCCC2)c(=O)n(-c2ccccc2)c(=O)n3Cc2c(F)cccc2F)cc1` [Example 94, N-{4-[1-(2,6-difluorobenzyl)-5-({methyl[3-oxo-3-(1-pyrrolidinyl)propyl]amino}methyl)-2,4-dioxo-3-phenyl-1,2,3,4-tetrahydrothieno[2,3-d]pyrimidin-6-yl]phenyl}-N′-ethylurea] here?
Its melting point is 240 to 244 °C.

For `CCNC(=O)Nc1ccc(-c2sc3c(c2CN(C)CCOC)c(=O)n(-c2ccc(N)cc2)c(=O)n3Cc2c(F)cccc2F)cc1` [Example 97, N-[4-(3-(4-aminophenyl)-1-(2,6-difluorobenzyl)-5-{[2-methoxyethyl(methyl)amino]methyl}-2,4-dioxo-1,2,3,4-tetrahydrothieno[2,3-d]pyrimidin-6-yl)phenyl]-N′-ethylurea], which melting point is on record?
The melting point was 205 to 207 °C.
